Test results taken from patent US9238639B2, “Aromatic ring compound” (TAKEDA PHARMACEUTICAL COMPANY LIMITED, priority 2012, dated 2016).

What follows are compounds tested against T1, human GOAT (Homo sapiens, UniProt Q96T53) (assay: GOAT enzyme activity measurement by HTRF method (human GOAT-expressing microsome fraction)). Conditions: 10 μM compound; human GOAT-expressing Sf9 microsome fraction; octanoyl-CoA and Ghrelin-biotin substrates; 0% control without compound, 100% control without enzyme.
T1 construct: made in house; host or cells: Sf9 insect cells (BacToBac baculovirus, pFastBac1 vector); microsome fraction
T1 sequence (Q96T53 1-435): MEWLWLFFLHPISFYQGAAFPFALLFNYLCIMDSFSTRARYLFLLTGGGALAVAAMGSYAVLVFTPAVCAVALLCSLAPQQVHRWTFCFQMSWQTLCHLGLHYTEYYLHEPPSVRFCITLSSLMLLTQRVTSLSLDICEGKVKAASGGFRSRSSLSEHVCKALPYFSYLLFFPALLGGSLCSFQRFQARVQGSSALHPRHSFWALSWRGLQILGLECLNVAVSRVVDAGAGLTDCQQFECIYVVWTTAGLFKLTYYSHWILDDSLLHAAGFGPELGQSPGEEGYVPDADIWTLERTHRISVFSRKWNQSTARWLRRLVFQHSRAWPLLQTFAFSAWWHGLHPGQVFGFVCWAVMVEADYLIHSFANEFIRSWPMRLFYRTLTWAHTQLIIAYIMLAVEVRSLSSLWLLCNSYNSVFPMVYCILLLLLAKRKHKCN
Type: biochemical
Procedure: Human GOAT (Accession NO: EU518495) cDNA was amplified by PCR including reaction of (1) 98° C., 1 min, (2) 35 repeats of 98° C., 10 sec·65° C., 15 sec·72° C., 80 sec, and (3) 72° C., 5 min, using human stomach cDNA library (Takara Bio) as a template and Pyrobest DNA Polymerase (Takara Bio). The amplified fragment was treated with restriction enzymes, inserted into Stu I/Not I sites of pFastBacl (Invitrogen) by using Ligation High (TOYOBO), and transfected into ECOS JM109 (Nippon Gene) to construct pFB/hGOAT.
Production of Baculovirus and Preparation of Insect Cell Microsome Fraction
For preparation of baculovirus from pFB/hGOAT, BacToBac baculovirus expression system (Invitrogen) was used. The virus titer was measured by Real-Time PCR using SYBR Green (Takara Bio). Sf9 cells were infected with the obtained baculovirus at Multiplicity of Infection (MOI)=0.2, and cultured for 70 hr. The Sf9 cells were recovered, suspended in a suspension buffer (TBS (0.3 M NaCl), 1 mM DTT, 1 mM EDTA, Complete (Roche) (1 tablet/50 mL)), and the cells were disrupted twice on ice at 20000 rpm, 30 sec using a polytron homogenizer. The cell disruption solution was centrifuged at 1000 rpm for 10 min at 4° C., the supernatant was further ultracentrifuged at 40000 rpm for 30 min at 4° C. and the precipitate was recovered. The obtained precipitate was suspended in the suspension buffer used above to give a human GOAT-expressing microsome fraction. The protein level was measured using BCA Protein assay Reagent (PIERCE).
Enzyme Activity Measurement by HTRF Method
A compound solution (2 μL) diluted with an assay buffer containing 50 mM Tris-HCl (pH 7.5), 0.5% TWEEN20, and Complete to 15% DMSO and 90 μg/mL human GOAT-expressing microsome fraction (2 μL) were incubated at room temperature for 20 min, after which a substrate mixed solution (2 μL) containing 30 μM octanoyl-CoA (CHEM-IMPLEX) and 3 μM Ghrelin-biotin ([…]epsilon aminocaproic acid-biotin (Greiner Coutom synthesis)) was added to 384 white small volume plate (Greiner). After reaction for 20 min, 2 μL of citrate buffer (pH3) (mixed solution of 0.1 M citric acid (39.8 mL) and 0.2 M Na2HPO4 (10.2 mL)), 2 μL of 25 nM anti-active ghrelin antibody (produced in mouse), 5 μL of Eu(K)-Anti Mouse IgG Pab (Cis Bio) 100-fold diluted with HTRF detection buffer (Cis Bio) and 5 μL of streptavidin-Xlent (Cis Bio) 66.6-fold diluted with HTRF detection buffer (Cis Bio) were added. After incubation at room temperature for 1 hr or longer, the fluorescence values at 620 nm and 665 nm were measured by Envision (PerkinElmer). The data was calculated [(665 nm signal/620 nm signal)×10^4], and the inhibitory activity against human GOAT was shown by the data where 0% control was without compound, and 100% control was without enzyme.

inhibition at 10 µM | SMILES
88.1% | COC(=O)Cc1csc2c(Cl)c(OCc3ccc(C(F)(F)F)nc3C)cc(Cl)c12 [Example 29, Methyl(4,7-dichloro-6-((2-methyl-6-(trifluoromethyl)pyridin-3-yl)methoxy)-1-benzothiophen-3-yl)acetate]
107% | Cn1nc(C(F)(F)F)cc1COc1cc(Cl)c2c(CC(=O)O)csc2c1F [Example 38, (4-Chloro-7-fluoro-6-((1-methyl-3-(trifluoromethyl)-1H-pyrazol-5-yl)methoxy)-1-benzothiophen-3-yl)acetic acid]
94.7% | COC(=O)Cc1csc2cc(OCc3cc(C)nn3C)cc(C)c12 [Example 7, Methyl(6-((1,3-dimethyl-1H-pyrazol-5-yl)methoxy)-4-methyl-1-benzothiophen-3-yl)acetate]
103% | Cc1cc(OCc2ccc(Cl)cc2Cl)cc2scc(CC(=O)O)c12 [Example 6, (6-((2,4-Dichlorobenzyl)oxy)-4-methyl-1-benzothiophen-3-yl)acetic acid]
105% | Cn1nc(C(F)(F)F)cc1COc1cc(Cl)c2c(CC(=O)O)csc2c1 [Example 22, (4-Chloro-6-((1-methyl-3-(trifluoromethyl)-1H-pyrazol-5-yl)methoxy)-1-benzothiophen-3-yl)acetic acid]
73% | CC(=O)NCCc1coc2cc(OCc3ccc(Cl)cc3Cl)ccc12 [Example 196, N-(2-(6-(2,4-Dichlorobenzyloxy)-1-benzofuran-3-yl)ethyl)acetamide]
85% | COCC1(C(=O)O)COc2cc(OCc3ccc(Cl)cc3Cl)ccc21 (centres unmarked) [Example 281, 6-((2,4-Dichlorobenzyl)oxy)-3-(methoxymethyl)-2,3-dihydro-1-benzofuran-3-carboxylic acid]
88.9% | CCOC(=O)Cc1csc2cc(OCc3cc(C(F)(F)F)nn3C)ccc12 [Example 17, Ethyl(6-((1-methyl-3-(trifluoromethyl)-1H-pyrazol-5-yl)methoxy)-1-benzothiophen-3-yl)acetate]
92.7% | COC(=O)Cc1csc2c(Cl)c(OCc3cc(C(F)(F)F)nn3C)cc(Cl)c12 [Example 27, Methyl(4,7-dichloro-6-((1-methyl-3-(trifluoromethyl)-1H-pyrazol-5-yl)methoxy)-1-benzothiophen-3-yl)acetate]
95% | O=C(O)CNC(=O)Cc1csc2cc(OCc3ccc(Cl)cc3Cl)ccc12 [Example 55, N-((6-((2,4-Dichlorobenzyl)oxy)-1-benzothiophen-3-yl)acetyl)glycine]
101% | Cc1nc(C(F)(F)F)ccc1COc1cc(Cl)c2c(CC(=O)O)csc2c1 [Example 16, (4-Chloro-6-((2-methyl-6-(trifluoromethyl)pyridin-3-yl)methoxy)-1-benzothiophen-3-yl)acetic acid]
56% | CCOC(=O)CNC(=O)Cc1csc2cc(OCc3ccc(Cl)cc3Cl)ccc12 [Example 53, Ethyl N-((6-((2,4-dichlorobenzyl)oxy)-1-benzothiophen-3-yl)acetyl)glycinate]
99% | O=C(O)CC1CSc2cc(OCc3ccc(Cl)cc3Cl)ccc21 (centres unmarked) [Example 50, (6-((2,4-Dichlorobenzyl)oxy)-2,3-dihydro-1-benzothiophen-3-yl)acetic acid]
97.3% | Cc1ccc(CCc2ccc3c(CC(=O)O)csc3c2)c(C)n1 [Example 182, (6-(2-(2,6-Dimethylpyridin-3-yl)ethyl)-1-benzothiophen-3-yl)acetic acid]
62.8% | COC(=O)Cc1csc2c(C)c(OCc3ccc(C(F)(F)F)nc3C)cc(C)c12 [Example 23, Methyl(4,7-dimethyl-6-((2-methyl-6-(trifluoromethyl)pyridin-3-yl)methoxy)-1-benzothiophen-3-yl)acetate]
69% | CCOC(=O)Cc1csc2cc(OCc3ccc(Cl)cc3Cl)ccc12 [Example 1, Ethyl(6-((2,4-dichlorobenzyl)oxy)-1-benzothiophen-3-yl)acetate]
67% | O=C(O)Cc1csc2cc([S+]([O-])Cc3ccc(Cl)cc3Cl)ccc12 (centres unmarked) [Example 84, (6-((2,4-Dichlorobenzyl)sulfinyl)-1-benzothiophen-3-yl)acetic acid]
104% | Cc1cc(OCc2cc(C(F)(F)F)nn2C)cc2scc(CC(=O)O)c12 [Example 12, (4-Methyl-6-((1-methyl-3-(trifluoromethyl)-1H-pyrazol-5-yl)methoxy)-1-benzothiophen-3-yl)acetic acid]
102% | Cc1nc(C(F)(F)F)ccc1COc1cc(F)c2c(CC(=O)O)csc2c1 [Example 305, (4-Fluoro-6-((2-methyl-6-(trifluoromethyl)pyridin-3-yl)methoxy)-1-benzothiophen-3-yl)acetic acid]
88.6% | COC(=O)Cc1csc2c(F)c(OCc3ccc(C(F)(F)F)nc3C)cc(Cl)c12 [Example 39, Methyl(4-chloro-7-fluoro-6-((2-methyl-6-(trifluoromethyl)pyridin-3-yl)methoxy)-1-benzothiophen-3-yl)acetate]
86% | COC(=O)[C@H](CO)NC(=O)Cc1csc2cc(OCc3ccc(Cl)cc3Cl)ccc12 [Example 54, Methyl N-((6-((2,4-dichlorobenzyl)oxy)-1-benzothiophen-3-yl)acetyl)serinate]
96.2% | Cc1cc(OCc2ccc(Cl)cc2Cl)c(C)c2c1C(CC(=O)O)CO2 (centres unmarked) [Example 291, (6-((2,4-Dichlorobenzyl)oxy)-4,7-dimethyl-2,3-dihydro-1-benzofuran-3-yl)acetic acid]
95.6% | Cc1cc(COc2cc(C)c3c(CC(=O)O)csc3c2)n(C)n1 [Example 8, (6-((1,3-Dimethyl-1H-pyrazol-5-yl)methoxy)-4-methyl-1-benzothiophen-3-yl)acetic acid]
83.1% | Cc1ccc(/C=C/c2ccc3c(CC(=O)O)csc3c2)c(C)n1 [Example 183, (6-((E)-2-(2,6-dimethylpyridin-3-yl)vinyl)-1-benzothiophen-3-yl)acetic acid]
99.2% | O=C(O)Cc1csc2cc(OCc3ccc(Cl)cc3Cl)ccc12 [Example 2, (6-((2,4-Dichlorobenzyl)oxy)-1-benzothiophen-3-yl)acetic acid]
106% | Cc1nc(C(F)(F)F)ccc1COc1cc(C)c2c(CC(=O)O)csc2c1F [Example 36, (7-Fluoro-4-methyl-6-((2-methyl-6-(trifluoromethyl)pyridin-3-yl)methoxy)-1-benzothiophen-3-yl)acetic acid]
95.2% | COC(=O)Cc1csc2cc(OCc3cc(C(F)(F)F)nn3C)cc(C)c12 [Example 11, Methyl(4-methyl-6-((1-methyl-3-(trifluoromethyl)-1H-pyrazol-5-yl)methoxy)-1-benzothiophen-3-yl)acetate]
98.9% | COC(=O)Cc1csc2c(F)c(OCc3cc(C(F)(F)F)nn3C)cc(Cl)c12 [Example 37, Methyl(4-chloro-7-fluoro-6-((1-methyl-3-(trifluoromethyl)-1H-pyrazol-5-yl)methoxy)-1-benzothiophen-3-yl)acetate]
59% | CCC(=O)NCC[C@@H]1COc2cc(OCc3ccc(Cl)cc3Cl)ccc21 [Example 198, N-(2-((3S)-6-((2,4-Dichlorobenzyl)oxy)-2,3-dihydro-1-benzofuran-3-yl)ethyl)propanamide]
